Assay results from ChEMBL document CHEMBL3774306, “Bisimidazoline arylamides binding to the DNA minor groove: N1-hydroxylation enhances binding affinity and selectivity to AATT sites” (Medchemcomm, 2015).
pKd: −log10 of the molar value. Calls of active or inactive are those of the source. The calls are words filed in the database; no cut-off is given here.

Key:
[1] = organism: Homo sapiens; test: Binding affinity to CATATATAT dsDNA (unknown origin) assessed as spectral changes at 2.5 uM by UV-vis spectrophotometry
[2] = organism: Homo sapiens; test: Binding affinity to CGCGCGCG dsDNA (unknown origin) assessed as spectral changes at 2.5 uM by UV-vis spectrophotometry
[3] = organism: Homo sapiens; test: Ratio of primary binding constant to secondary binding constant for biotin labelled 5'-CATATATATCCCCATATATATG-3' hairpin dsDNA (unknown origin) immobilized on biosensor chip by surface plasmon resonance analysis
[4] = Binding affinity to biotin labelled 5'-CGCGCGCGTTTTCGCGCGCG-3' hairpin dsDNA (unknown origin) immobilized on biosensor chip by surface plasmon resonance analysis; set-up: species or system Homo sapiens; conditions: for pKd: read-out: Kd
[5] = organism: Homo sapiens; test: Binding affinity to CGAATTCG dsDNA (unknown origin) assessed as spectral changes at 2.5 uM by UV-vis spectrophotometry
[6] = organism: Homo sapiens; test: Selectivity ratio of Kd for biotin labelled 5'-CATATATATCCCCATATATATG-3' hairpin dsDNA (unknown origin) to Kd for biotin labelled 5'-CGAATTCGTCTCCGAATTCG-3' hairpin dsDNA (unknown origin)
[7] = Binding affinity to biotin labelled 5'-CGAATTCGTCTCCGAATTCG-3' hairpin dsDNA (unknown origin) immobilized on biosensor chip by surface plasmon resonance analysis; set-up: species or system Homo sapiens
[8] = Binding affinity to fish sperm DNA assessed as hypochromicity change at 30 uM by UV-vis spectrophotometry relative to control; conditions: Hyperoartia
[9] = Binding affinity to biotin labelled 5'-CATATATATCCCCATATATATG-3' hairpin dsDNA (unknown origin) immobilized on biosensor chip by surface plasmon resonance analysis; set-up: species or system Homo sapiens
[10] = organism: Homo sapiens; test: Ratio of primary binding constant to secondary binding constant for biotin labelled 5'-CGAATTCGTCTCCGAATTCG-3' hairpin dsDNA (unknown origin) immobilized on biosensor chip by surface plasmon resonance analysis
[11] = Binding affinity to biotin labelled 5'-CATATATATCCCCATATATATG-3' hairpin dsDNA (unknown origin) immobilized on streptavidin-derivatized gold chip incubated for 5 mins followed by dissociation period of 5 mins by surface plasmon resonance analysis; set-up: species or system Homo sapiens
[12] = organism: Homo sapiens; test: Binding affinity to GAATAATCGCGATTATTC dsDNA (39 bp) (unknown origin) assessed as slow binding constant
[13] = organism: Homo sapiens; test: Binding affinity to CGAATTCG dsDNA (unknown origin) assessed as isosbestic point at 2.5 uM by UV-vis spectrophotometry
[14] = organism: Homo sapiens; test: Binding affinity to GAATAATCGCGATTATTC dsDNA (39 bp) (unknown origin) assessed as long lasting constant
[15] = organism: Homo sapiens; test: Binding affinity to CGCGCGCG dsDNA (unknown origin) assessed as isosbestic point at 2.5 uM by UV-vis spectrophotometry
[16] = organism: Homo sapiens; test: Binding affinity to CATATATAT dsDNA (unknown origin) assessed as isosbestic point at 2.5 uM by UV-vis spectrophotometry
[17] = organism: Homo sapiens; test: Selectivity ratio of Kd for biotin labelled 5'-CGCGCGCGTTTTCGCGCGCG-3' hairpin dsDNA (unknown origin) to Kd for biotin labelled 5'-CATATATATCCCCATATATATG-3' hairpin dsDNA (unknown origin)

| SMILES | Ratio [3] | pKd [4] | pKd [7] | Activity [8] [%] | pKd [9] | Ratio [10] | other results |
| --- | --- | --- | --- | --- | --- | --- | --- |
| O=C(Nc1ccc(NC2=[N+]([O-])CCN2)cc1)c1ccc(NC2=[N+]([O-])CCN2)cc1 | 100 | 4.73 | 7.11 | 9 | 6.56 | 100 | Activity [1]: Active; Activity [2]: Active; Activity [5]: Active; Selectivity ratio [6]: 3.5 |
| N=C(N)Nc1ccc(NC(=O)c2ccc(NC(=N)N)cc2)cc1 | – | < 5.00 | – | – | – | – | – |
| CO[N+]1=C(Nc2ccc(NC(=O)c3ccc(NC4=[N+](OC)CCN4)cc3)cc2)NCC1 | 100 | < 5.00 | 6.59 | 9 | 6.45 | 100 | Selectivity ratio [6]: 1.5 |
| c1cc(NC2=NCCN2)ccc1CCc1ccc(NC2=NCCN2)cc1 | 5 | 4.71 | 5.56 | – | 5.36 | 5 | – |
| c1cc(NC2=NCCN2)cc(Nc2ccc(NC3=NCCN3)cc2)c1 | 100 | – | 5.57 | – | – | 100 | Kd [4]: Not Active; pKd [11]: 5.66 |
| [O-][N+]1=C(Nc2ccc(Nc3cccc(NC4=[N+]([O-])CCN4)c3)cc2)NCC1 | 100 | 4.18 | 6.25 | – | 5.75 | 100 | K [12]: 38 M⁻¹ s⁻¹; Activity [13]: 325 nm; K [14]: 0.00265 s⁻¹; Activity [15]: inactive; Activity [16]: 335 nm |
| CC/N=C(\N)Nc1ccc(NC(=O)Nc2ccc(N/C(N)=N/CC)cc2)cc1 | – | – | < 4.54 | – | < 4.54 | – | Kd [4]: Not Active |
| O=C(Nc1ccc(NC2=NCCN2)cc1)c1ccc(NC2=NCCN2)cc1 | 100 | < 5.00 | 6.78 | – | 6.51 | 100 | Selectivity ratio [6]: 1.5 |
| [O-][N+]1=C(Nc2ccc(CCc3ccc(NC4=[N+]([O-])CCN4)cc3)cc2)NCC1 | 30 | 4.11 | 6.06 | 9 | 5.40 | 30 | – |
| CCO[N+]1=C(Nc2ccc(CCc3ccc(NC4=[N+](OCC)CCN4)cc3)cc2)NCC1 | 100 | < 4.54 | < 4.54 | 9 | < 4.54 | 100 | – |
| CC(C)/N=C(\N)Nc1ccc(NC(=O)c2ccc(N/C(N)=N/C(C)C)cc2)cc1 | – | < 5.00 | – | – | – | – | – |
| O=C(Nc1ccc(NC2=NCCN2)cc1)Nc1ccc(NC2=NCCN2)cc1 | 100 | 3.80 | 4.94 | – | 5.09 | 100 | Selectivity ratio [17]: 10 |
| CC/N=C(\N)Nc1ccc(NC(=O)c2ccc(N/C(N)=N/CC)cc2)cc1 | – | < 5.00 | – | – | – | – | – |
